# In publication PMC11915032, “Development of a Novel ^18F-Labeled Radioligand for Imaging Cholesterol 24-Hydroxylase with Positron Emission Tomography” (ACS Pharmacology & Translational Science, 2025):
# What was measured:
# [1] = biological target: T1, CYP46A1 (Rattus norvegicus, UniProt A0ACM8QFK4); test: In vitro autoradiography with [^18F]5 on rat brain tissue sections; type: binding; details: displacement of [^18F]5 with unlabeled 5 at varying concentrations
# T1 construct: from tissue; host or cells: rat brain (Sprague-Dawley rats)
# Experimental: To assess the binding specificity of [^18F]5 for CYP46A1, in vitro autoradiography was performed by using rat brain tissue sections. […] The accumulation patterns are in agreement with the brain distribution of CYP46A1 in rodents.[18] […] Furthermore, [^18F]5 was utilized to assess the potency toward CYP46A1 through an inhibition assay based on an in vitro autoradiography study (Figure 4B). The assay was performed by the incubation of [^18F]5 on rat brain tissue sections in the presence of unlabeled 5 at varying concentrations.
# The autoradiography study was conducted as previously reported.[22],[23] In brief, sagittal rat brain sections (20 μm) were incubated with Tris–HCl buffer (50 mM) at room temperature for 20 min and then incubated with [^18F]5 (1 μCi/mL). In the blocking study, the brain sections were incubated with [^18F]5 in the presence of Soticlestat, CHL2205, or 5 (10 μM). Then, the brain sections were washed with ice-cold Tris–HCl buffer (50 mM) for 2 min and cold distilled water for 10 s. Subsequently, the brain sections were dried, positioned on an imaging screen, and scanned by an Amersham Typhoon analyzer system.
# [2] = biological target: T2, CYP46A1 (Homo sapiens, UniProt Q9Y6A2); test: CYP46A1 inhibition potency; type: biochemical
# [3] = tested on: 67 major CNS targets; test: Off-target binding screen at 10 μM (NIMH PDSP); details: 10 μM testing concentration; except sigma-2 receptor
# Experimental: Furthermore, off-target binding assays of compound 5 were performed in vitro against 67 major CNS targets (Figure S1 in the Supporting Information).
# 1 Supporting Scheme, Figures, and Tables
# Scheme S1. Synthesis of precursor 6. (i) azetidin-3-ol hydrochloride, triphosgene, NEt 3, dichloromethane, 0 °C to room temperature, 1 h; (ii) 4-nitrobenzenesulfonyl chloride, 4-(dimethylamino)pyridine, NEt3, dichloromethane, room temperature, 12 h, 31% yield over […]
# % Inhibition of Target Activity
# Figure S1. Off-target pharmacological evaluation of compound 5 against major CNS targets, including common GPCRs, enzymes, ion channels, and transporters: initial screening at a concentration of 10 μM (supported by the NIMH PDSP). All data are mean
# [4] = logD by shake flask method; type: physicochemical; details: n-octanol/PBS
# Experimental: The lipophilicity was measured according to a previous report.[21] In brief, [^18F]5, n-octanol (3 mL), and PBS (3 mL) were added in a centrifugal tube, followed by vortexing for 3 min and centrifugation (∼14,000 rpm) for 5 min. Then, PBS (around 500 μL) and n-octanol (around 50 μL) were weighed and measured by a gamma counter.
# [5] = biological target: T2, CYP46A1; parameters: method as in PMID 32178974, PMID 34651220, PMID 37770111, PMID 36197966; details: in vivo; cited from earlier work
# [6] = In vitro stability in saline; type: physicochemical; details: saline 18.5 MBq/mL, containing 5% ethanol, up to 60 min
# Experimental: The ^18F-labeling nosylate precursor 6 was prepared via a procedure similar to that of compound 5 in 31% yield over two steps (Scheme S1). […] [^18F]5 was generated in a 13% decay-corrected radiochemical yield with a high molar activity of 93 GBq/μmol (2.5 Ci/ μmol).
# [7] = Whole-body biodistribution in CD-1 mice; type: in vivo, mouse
# Experimental: The biodistribution study was conducted in CD-1 mice as previously reported.[24] CD-1 mice were administrated with [^18F]5 (10 μCi) and divided into four groups and then euthanized at 5, 15, 30, and 60 min after administration of [^18F]5. Major organs were collected, weighed, and measured by a gamma counter.
# [8] = biological target: T1, CYP46A1; test: Dynamic PET imaging in Sprague-Dawley rats; type: in vivo
# Experimental: To investigate the in vivo binding specificity of [^18F]5 toward CYP46A1, dynamic PET imaging was performed in Sprague–Dawley (SD) rats (Figures 5 and S3 in the Supporting Information). […] Future studies will be required to evaluate its suitability in higher species and direct comparisons under identical experimental conditions. […] To investigate the reversibility of the tracer binding, we further performed a displacement study with Soticlestat at 20 min postadministration of [^18F]5 (Figure S4 in the Supporting Information).
# The dynamic PET imaging study was performed in SD rats as previously reported.[21] A Genisys G8 PET scanner (Sofie Biosciences, USA) was used for dynamic PET imaging in rats with [^18F]5 (0.04 mCi) for 60 min. In the blocking study, rats were pretreated with Soticlestat (1 mg/kg, intravenous injection via the tail vein) 10 min before administration of [^18F]5. For the chase study, the rats were treated with Soticlestat (1 mg/kg, i.v.) 20 min after administration of [^18F]5.
# [9] = Stability in human serum; type: in vitro ADME; details: 37 °C, up to 60 min
# Experimental: (§1) Mouse serum (Sigma-Aldrich, cat. M5905, 0.4 mL), rat serum (Abcam, cat. ab7488, 0.4 mL), NHP serum (Abcam, cat. ab155109, 0.4 mL), and human serum (Sigma-Aldrich, cat. H4522, 0.4 mL) were incubated at 37 °C for 5 min. Then, formulated [^18F]5 was added and incubated at 37 °C (Benfluorex was used in the positive control test). At 5, 30, and 60 min after incubation with [^18F]5, 100 μL of the samples was drawn in centrifugal tubes and added to ice-cold MeCN (100 μL). The mixtures were centrifuged at 10,000g for 5 min, and the supernatants were analyzed by radio-HPLC.
# [10] = Stability in mouse serum; type: in vitro ADME; details: 37 °C, up to 60 min
# Experimental: as §1
# [11] = Radiometabolite analysis in SD rats; type: in vivo, rat
# Experimental: Radiometabolite analysis of [^18F]5 was conducted as previously reported.[25] SD rats were administrated with [^18F]5 and then euthanized at 20 and 60 min after administration of [^18F]5. The brains were collected, homogenized, and centrifuged with cold acetonitrile and PBS buffer. Then, the supernatants were injected into a radio-HPLC with unlabeled 5 as an internal standard. Both [^18F]5 and its ^18F-metabolites were collected by HPLC and then measured by a gamma counter. The same procedure was performed for the plasma.
# [12] = Stability in NHP serum; type: in vitro ADME; details: 37 °C, up to 60 min
# Experimental: as §1
# [13] = Stability in rat serum; type: in vitro ADME; details: 37 °C, up to 60 min
# Experimental: as §1
# T2 sequence (Q9Y6A2 whole entry, species assumed): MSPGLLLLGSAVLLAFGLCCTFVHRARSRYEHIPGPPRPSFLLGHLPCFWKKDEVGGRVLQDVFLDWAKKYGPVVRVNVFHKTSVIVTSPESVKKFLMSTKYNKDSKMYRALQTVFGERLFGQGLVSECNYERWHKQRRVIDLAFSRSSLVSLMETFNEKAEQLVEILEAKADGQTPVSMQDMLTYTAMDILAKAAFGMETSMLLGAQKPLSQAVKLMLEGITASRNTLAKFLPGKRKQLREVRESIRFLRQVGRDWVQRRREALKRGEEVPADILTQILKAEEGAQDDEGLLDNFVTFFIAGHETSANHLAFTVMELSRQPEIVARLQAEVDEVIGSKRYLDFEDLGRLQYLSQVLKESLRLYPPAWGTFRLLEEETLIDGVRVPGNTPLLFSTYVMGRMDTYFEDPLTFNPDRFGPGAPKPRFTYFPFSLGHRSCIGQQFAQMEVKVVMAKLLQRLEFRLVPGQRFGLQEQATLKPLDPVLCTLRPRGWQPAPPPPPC
# T1 sequence (A0ACM8QFK4 29-500): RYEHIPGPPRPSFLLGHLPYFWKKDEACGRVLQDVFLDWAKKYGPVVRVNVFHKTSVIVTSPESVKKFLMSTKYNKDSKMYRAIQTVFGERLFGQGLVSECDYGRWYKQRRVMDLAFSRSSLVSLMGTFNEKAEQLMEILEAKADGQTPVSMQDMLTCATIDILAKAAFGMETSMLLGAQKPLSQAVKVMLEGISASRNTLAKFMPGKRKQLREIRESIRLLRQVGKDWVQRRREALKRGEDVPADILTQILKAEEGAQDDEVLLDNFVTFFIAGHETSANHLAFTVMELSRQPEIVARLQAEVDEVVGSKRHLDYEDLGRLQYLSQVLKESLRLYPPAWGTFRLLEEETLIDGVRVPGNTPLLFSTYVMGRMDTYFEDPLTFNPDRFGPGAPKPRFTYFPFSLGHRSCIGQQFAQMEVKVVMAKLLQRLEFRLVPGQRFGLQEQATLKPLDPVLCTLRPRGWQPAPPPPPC
smiles,measurement,setting,value
"O=C(N1CC(F)C1)N1CCc2c(-c3cnco3)cc(C(F)(F)F)cc21 [Compound 5, (3-fluoroazetidin-1-yl)(4-(oxazol-5-yl)-6-(trifluoromethyl)indolin-1-yl)methanone]",Kd,[1],0.37 nM
same,IC50,[2],0.11 nM
same,off-target binding (>50% inhibition),[3],no significant off-target binding
same,logD,[4],3.16
O=C(C1CCN(c2cnccc2-n2cc(Cl)cn2)CC1)N1CC([18F])C1 [[^18F]3g],binding specificity toward CYP46A1,[5],good binding specificity
same,brain uptake,[5],high brain uptake
O=C(N1CC([18F])C1)N1CCc2c(-c3cnco3)cc(C(F)(F)F)cc21 [[^18F]5],in vitro stability (radiolysis) in saline,[6],no radiolysis detected
same,bone uptake (radiodefluorination),[7]; 5-60 min,No obvious increase in bone uptake
same,liver uptake,[7]; 60 min,6.5 % ID/g
same,"initial uptake in brain, small intestine, kidney and liver",[7]; initially,~10 % ID/g
same,SUVmax in striatum,"[8]; SD rats, baseline PET",4.1
same,SUVmax in thalamus,"[8]; SD rats, baseline PET",4.2
same,brain uptake SUV,[8]; rodents,> 4
same,stability in human serum,[9],minimal radiometabolite formation
same,stability in mouse serum,[10],minimal radiometabolite formation
same,IC50,[2],0.11 nM
same,unchanged [^18F]5 in brain,[11]; 20 min postadministration,93%
same,unchanged [^18F]5 in plasma,[11]; 20 min postadministration,29%
same,unchanged [^18F]5 in brain,[11]; 60 min postadministration,92%
same,unchanged [^18F]5 in plasma,[11]; 60 min postadministration,23%
same,stability in NHP serum,[12],minimal radiometabolite formation
same,stability in rat serum,[13],minimal radiometabolite formation
"O=C(c1cccnc1-c1ccncc1)N1CCC(O)(Cc2ccccc2)CC1 [Soticlestat, reference compound]",brain signal in displacement (chase) study,[8]; 1 mg/kg i.v. at 20 min postadministration of [^18F]5,markedly reduced
O=[11C](NCc1ccccc1)N1CCN(c2cncnc2-c2ccccc2)CC1 [[^11C]A],binding specificity toward CYP46A1,[5],marginal binding specificity
same,brain uptake,[5],low brain uptake
CN(C(=O)C1CCN(c2cncnc2-c2ccc([18F])cc2)CC1)C1CC1 [[^18F]CHL2205],binding specificity toward CYP46A1,[5],good binding specificity
same,brain uptake,[5],high brain uptake
O=C(C1CCN(c2cncnc2-c2ccc(F)cc2)CC1)N1CC([18F])C1 [[^18F]T-008],binding specificity toward CYP46A1,[5],good binding specificity
same,brain uptake,[5],high brain uptake
